Test results: patent US12448400B2, “KRAS G12D modulating compounds” (priority 2023, dated 2025)
Like-named read-outs stand apart in the source and are kept apart here.

What was measured:
GP2D (KRAS G12D) cells = experiment: 2D cell viability assay (CellTiter-Glo); format: cell-based; details: GP2D cells, 4 days, CellTiter-Glo luminescence, read-out: G12D 2D EC50
Method in brief: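 Viability was read by CellTiter-Glo after 4 days at 37 °C of 2D culture of KRAS G12D GP2D cells (1000/well, RPMI, 10% FBS) on pre-spotted threefold compound dilutions. EC50 was fitted with a sigmoidal dose-response model as the point of half-maximal luminescence loss.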

[1] = Mouse oral cassette pharmacokinetics; format: in vivo, male CD-1 mice
Description: Mouse Oral Cassette Pharmacokinetics
Test compounds (1-3 compounds per cassette) were formulated in solution formulations (10 w/v % Captisol in 50 mM Citrate buffer) and administered orally at 30 mg-eq./kg each compound to a group of four male CD-1 mice. The test articles were administrated by oral gavage at a dose volume of 10 mL-eq/kg.
Blood samples were collected at 0.5, 1, 3, 6, 8, and 24 hours post dose into K2EDTA tubes and stored on wet ice until processed. Whole blood was processed to plasma by centrifugation (3500 rpm for 10 minutes at 5° C.) within 30 minutes of collection. Plasma samples were placed in Micronic 96 well tubes and stored at −80° C. until transferred. Plasma concentration of the test compounds was determined by LC-MS/MS. Pharmacokinetic parameters were estimated using non-compartment model analysis. The maximum observed concentration (Cmax) and area under the curve from time of dosing to last measured concentration (AUClast) were calculated and reported.

GDP-loaded KRAS G12D = GDP-loaded KRAS G12D (Homo sapiens, UniProt P01116, G12D); experiment: KRAS G12D (GDP) biochemical assay, TR-FRET probe displacement; format: binding; details: 0.5 nM enzyme, 30 min pre-incubation, 2 h incubation, TR-FRET ratio; read-out: G12D IC50
Chain of GDP-loaded KRAS G12D (P01116 1-188 isoform P01116-2 G12D): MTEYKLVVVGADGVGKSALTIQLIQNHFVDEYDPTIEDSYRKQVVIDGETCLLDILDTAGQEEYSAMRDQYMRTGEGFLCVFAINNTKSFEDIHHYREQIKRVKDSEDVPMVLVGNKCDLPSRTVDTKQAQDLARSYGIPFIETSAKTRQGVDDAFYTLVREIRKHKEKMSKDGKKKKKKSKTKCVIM
Description: Example A. KRAS G12D (GDP) Biochemical Assay
Compounds were tested for binding to GDP-loaded KRAS G12D in a 384-well assay format using a TR-FRET probe displacement assay in buffer consisting of 50 mM Hepes (pH 7.4), 150 mM NaCl, 5 mM MgCl2 and 0.005% Tween-20. […] Compounds were serially diluted (1:3) in DMSO. The LabCyte ECHO Acoustic dispenser system was used to pre-spot the assay plates (384-well Non-Binding Surface plates, Corning, Catalog #3824) with 50 nL of compound. The compounds were pre-incubated with 5 μL of 2× final enzyme concentration for 30 minutes before adding 5 μL of 2× final concentration of Eu-streptavidin and TR-FRET probe (10 μL final reaction volume). The plates were incubated at room temperature for 2 hours before measuring TR-FRET ratio on the Envision plate reader. IC50 values were defined as the compound concentration that causes a 50% decrease in TR-FRET ratio and were calculated using a sigmoidal dose-response model to generate curve fits.

[2] = male, CD-1, mouse, in vivo, po, 30 mg/kg

Row | Molecule | EC50 (GP2D (KRAS G12D) cells; 96 h) | Mouse Parent AUC [1, 2] | IC50 (GDP-loaded KRAS G12D) | further results
1 | C#Cc1c(F)ccc2cc(O)cc(-c3nc4c5c(nc(OC[C@@]67CCCN6C[C@H](F)C7)nc5c3F)N3C[C@H]5CC[C@@H]([C@@H]3[C@@H](C)[C@H]4C)N5Cc3oc(=O)oc3C)c12 [Example 29, 4-(((7R,8S,8aS,9S,12R)-5-(8-ethynyl-7-fluoro-3-hydroxynaphthalen-1-yl)-4-fluoro-2-(((2R,7aS)-2-fluorotetrahydro-1H-pyrrolizin-7a(5H)-yl)methoxy)-7,8-dimethyl-7,8,8a,9,10,11,12,13-octahydro-1,3,6,13a,14-pentaaza-9,12-methanonaphtho[1,8-ab]heptalen-14-yl)methyl)-5-methyl-1,3-dioxol-2-one] | 130 pM | 0.75 µM·h |  | 
2 | C#Cc1c(F)ccc2cc(O)cc(-c3nc4c5c(nc(OC[C@@]67CCCN6C[C@H](F)C7)nc5c3F)N3C[C@H]5CC[C@H](N5)[C@@H]3[C@@H](C)[C@H]4C)c12 [Comp. Ex. 87, reference compound] |  | 0.9 µM·h |  | 
3 | C#Cc1c(F)ccc2cc(O)cc(-c3nc4c5c(nc(OC[C@@]67CCCN6C[C@H](F)C7)nc5c3F)N3C[C@H]5CC[C@H](N5)[C@@H]3[C@@H](C)C4)c12 [Comp. Ex. 64, 5-ethynyl-6-fluoro-4-((5S,5aS,6S,9R)-1-fluoro-12-(((2R,7aS)-2-fluorotetrahydro-1H-pyrrolizin-7a(5H)-yl)methoxy)-5-methyl-4,5,5a,6,7,8,9,10-octahydro-3,10a,11,13,14-pentaaza-6,9-methanonaphtho[1,8-ab]heptalen-2-yl)naphthalen-2-ol, reference compound] |  | 0.83 µM·h |  | 
4 | 5-ethynyl-6-fluoro-4-((7R,8S,8aS,9S,12R)-4-fluoro-2-(((2R,7aS)-2-fluorotetrahydro-1H-pyrrolizin-7a(5H)-yl)methoxy)-7,8-dimethyl-14-((5-methyl-2-oxo-1,3-dioxol-4-yl)methyl)-7,8,8a,9,10,11,12,13-octahydro-1,3,6,13a,14-pentaaza-9,12-methanonaphtho[1,8-ab]heptalen-5-yl)naphthalen-2-yl isobutyrate [Example 31] |  |  |  | EC50 (GP2D (KRAS G12D) cells): 200 pM; Mouse Parent AUC ([1]; oral gavage, 30 mg-eq./kg each compound, cassette, plasma, AUClast of parent): 0.99 µM·h
5 | C#Cc1c(F)ccc2cc(N)cc(-c3nc4c5c(nc(OC[C@]6(C)CN(C)CC[C@@H]6C(F)F)nc5c3F)N3C[C@H]5CC[C@H](N5)[C@H]3CCC4)c12 [Example 76-P, 4-((6aR,7S,10R)-13-(((3S,4S)-4-(difluoromethyl)-1,3-dimethylpiperidin-3-yl)methoxy)-1-fluoro-5,6,6a,7,8,9,10,11-octahydro-4H-3,11a,12,14,15-pentaaza-7,10-methanocyclohepta[4,5]cycloocta[1,2,3-de]naphthalen-2-yl)-5-ethynyl-6-fluoronaphthalen-2-amine] | 270 pM |  | 70 pM | 
6 | C#Cc1c(F)ccc2cc(OCc3oc(=O)oc3C)cc(-c3nc4c5c(nc(OC[C@@]67CCCN6C[C@H](F)C7)nc5c3F)N3C[C@H]5CC[C@@H]([C@@H]3[C@@H](C)C4)N5Cc3oc(=O)oc3C)c12 [Example 2, 4-(((5-ethynyl-6-fluoro-4-((5S,5aS,6S,9R)-1-fluoro-12-(((2R,7aS)-2-fluorotetrahydro-1H-pyrrolizin-7a(5H)-yl)methoxy)-5-methyl-14-((5-methyl-2-oxo-1,3-dioxol-4-yl)methyl)-4,5,5a,6,7,8,9,10-octahydro-3,10a,11,13,14-pentaaza-6,9-methanonaphtho[1,8-ab]heptalen-2-yl)naphthalen-2-yl)oxy)methyl)-5-methyl-1,3-dioxol-2-one] | 240 pM |  | 40000 pM | 
